This passage reports TGI and GI50 results from PubChem BioAssay (NCI).

Several values for one entry are separate records, joined by “and”; a condition that tells them apart may be missing. Equal values may be shown once.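 Step 1: Grow cells in 96-well plates. Step 2: Expose to compound for 48 hours at 5 concentrations. Step 3: Interpolate endpoints linearly; if unreached, use highest concentration. GI50 = concentration required for 50% inhibition of growth. TGI denotes the concentration required for complete inhibition of growth.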

Holding throughout (assay): growth of human tumour cells (NCI), 48 h
Experiment [1] concerns RPMI-8226 leukemia.
In experiment [2] the test system is NCI/ADR-RES ovarian.
In experiment [3] the test system is NCI-H226 lung.
Experiment [4] relates to MALME-3M melanoma.
For experiment [5], the system named is BT-549 breast.
Experiment [6] has as its system CCRF-CEM leukemia.
Experiment [7] has as its system KM12 colon.
Experiment [8] has as its system SW-620 colon.
Experiment [9] relates to PC-3 prostate.
The test system of experiment [10] is ACHN renal.

Consider `CC1(C)OC2C(=O)C=C(COCc3ccccc3)C2O1` (stereo not drawn), for which the TGI in [1] was more than 100 µM; in experiment [2] it was more than 100 µM; in [3], 61.5 µM; in experiment [4] it was 45 µM; in [5], 39.8 µM; in experiment [6], more than 100 µM. The TGI is 51.1 µM in experiment [7], 52.2 µM in experiment [8], more than 100 µM in experiment [9] and more than 100 µM in [10].
With `O=C(Nc1cccc(Nc2ncc(Br)c(NCCc3cnc[nH]3)n2)c1)N1CCCC1`, the GI50 in experiment [1] was 3.9 µM; in experiment [2], more than 66.7 µM; in [3], 0.771 µM; in experiment [4], 6.19 µM; in experiment [5], 2.04 µM; in experiment [6], 0.58 µM. Moreover, the GI50 in experiment [7] is 0.869 µM; in experiment [8] it was 1.27 µM; in [9], 3.2 µM; in experiment [10], 11 µM. The TGI in experiment [1] was 19.5 µM; in experiment [2], more than 100 µM; in experiment [3], 4.74 µM; in [4], 20 µM; in [5], 13 µM; in [6] it was 29 µM. Further, the TGI is 11.5 µM in experiment [7], 11.4 µM in [8], 45.6 µM in experiment [9] and 56 µM in experiment [10].
Take `CN(CC(N)=O)C(=O)N(CCCl)N=O`: the TGI in experiment [1], in experiment [2], in experiment [3], in experiment [4], in experiment [5] and in experiment [6] was more than 100 µM each time. The TGI in experiment [7], in experiment [8], in [9] and in experiment [10] was more than 100 µM each time.
With `COc1ccc(OC)c(Cn2cc3c(c2)-c2oncc2CC3)c1`, the GI50 in [1] was 3.39 µM; in experiment [2], 2.01 µM; in experiment [3], 7.67 µM; in [4], 3.03 µM; in experiment [5], 4.05 µM; in [6], 2.13 µM. Moreover, the GI50 is 3.02 µM in experiment [7], 2.87 µM in [8], 5.89 µM in experiment [9] and 6.07 µM in [10]. The TGI is more than 27.9 µM in experiment [1]; 6.68 µM in [2]; more than 100 µM in experiment [3]; 40.7 µM in experiment [4]; more than 100 µM in [5]; more than 26 µM in [6]. In addition, the TGI is 39.4 µM in experiment [7], more than 100 µM in [8], more than 100 µM in experiment [9] and more than 100 µM in experiment [10].
Regarding `O=C1NC(=O)C(c2cccc(Cl)c2)=C1Nc1ccc(O)c(Cl)c1`, the GI50 is 14 µM in [1]; 10.4 µM in experiment [2]; 12 µM in [3]; 15.9 µM in experiment [4]; 11.3 µM in experiment [5]; 11 µM in [6]. The GI50 in [7] was 10.5 µM; in experiment [8] it was 8.73 µM; in experiment [9] it was 12.2 µM; in experiment [10], 11.4 µM. The TGI in [1], in experiment [2], in experiment [3], in [4], in experiment [5] and in experiment [6] was more than 25 µM each time. Also, the TGI in experiment [7], in experiment [8], in [9] and in experiment [10] was more than 25 µM each time.
Consider `Cc1cccc(NC(=O)c2sc3nc4c(cc3c2N)CN(Cc2ccccc2)CC4)c1C`, for which the GI50 in experiment [1] was 0.198 µM; in [2], 0.133 µM; in experiment [3], 1.64 µM; in [4], 0.239 µM; in experiment [5] it was 0.304 µM; in experiment [6], 0.195 µM. For the same compound, the GI50 was 0.193 µM in experiment [7], 0.207 µM in experiment [8], 0.21 µM in [9] and 0.409 µM in experiment [10]. For the same compound, the TGI in [1], in experiment [2], in experiment [3], in [4], in experiment [5] and in [6] was more than 50 µM each time. Also, the TGI in experiment [7], in experiment [8], in experiment [9] and in experiment [10] was more than 50 µM each time.
On to `CC(C)=CCC/C(C)=C/CC/C(C)=C/CC/C=C(\C)CC/C=C(\C)CCC(=O)Nc1ccn(C2OC(CO)C(O)C2(F)F)c(=O)n1` (stereo not drawn), for which the GI50 in experiment [1] was 0.122 µM; in [2], 0.116 µM; in [3], 2.5 µM; in experiment [4] it was 0.438 µM; in experiment [6], 0.0639 µM; in [7] it was 0.181 µM. For the same compound, the GI50 in experiment [8] is 0.48 µM; in experiment [9], 1.19 µM; in [10], 0.0266 µM. For the same compound, the TGI in experiment [1] is 2.49 µM; in experiment [2], 16.6 µM; in [3] it was 20.4 µM; in experiment [4], 6.71 µM; in experiment [5], 0.472 µM; in experiment [6], 0.525 µM. Further, the TGI in experiment [7] was 18.1 µM; in experiment [8] it was 21.4 µM; in experiment [9] it was 20.5 µM; in [10], 11.2 µM.
`CN(C)CC1CCCC1=O` (stereo not drawn): the TGI was 1.93 µM in experiment [1]; 55.7 µM in experiment [2]; 30.5 µM in [3]; 2.57 µM in experiment [4]; 13.8 µM in experiment [5]; 0.533 µM in experiment [6]. Moreover, the TGI was determined as 5.85 µM in experiment [7], 0.517 µM in experiment [8], 22.6 µM in experiment [9] and 7.08 µM in experiment [10].
For the compound `O=C(Oc1cccnc1)c1ccsc1Nc1ccnc(C(F)(F)F)c1`, the GI50 in experiment [1] is 6.45 µM; in [2], 4.62 µM; in experiment [3], 22.3 µM; in experiment [4], 45.6 µM; in experiment [5] it was 5.36 µM; in [6], 4.19 µM. The GI50 in experiment [7] is 3.38 µM; in experiment [8] it was 4.09 µM; in experiment [9], 9.24 µM; in [10] it was 17.7 µM. Moreover, the TGI in [1] is 51.8 µM; in [2], more than 100 µM; in experiment [3] it was more than 100 µM; in experiment [4], more than 100 µM; in [5], more than 100 µM; in [6], more than 100 µM. Further, the TGI in [7] is 10.3 µM; in experiment [8] it was more than 100 µM; in [9] it was 73.2 µM; in [10] it was 95.8 µM.
Regarding `CCn1c2ccccc2c2cc(/C=C(/C#N)C(N)=O)ccc21`, the GI50 in [1] is 7.94 µM; in experiment [2], 11.2 µM; in [3], 0.209 µM; in experiment [4], more than 75.2 µM; in experiment [5], 0.938 µM; in experiment [6] it was 13.2 µM. The GI50 in [7] was 13.5 µM; in experiment [8], 4.86 µM; in [9] it was 21.6 µM; in [10], more than 76 µM. Besides, the TGI in experiment [1] was more than 84.7 µM; in experiment [2] it was 88.1 µM; in [3], 1.13 µM; in [4], more than 100 µM; in experiment [5], 44.7 µM; in experiment [6], more than 100 µM. The TGI in experiment [7], in [8], in experiment [9] and in experiment [10] was more than 100 µM each time.
For the compound `O=c1[nH]cnc2c(C3NC(CO)C(O)C3O)c[nH]c12` (stereo not drawn), the GI50 in [1], in experiment [2], in experiment [3], in experiment [4], in experiment [5] and in [7] was more than 100 µM each time. Also, the GI50 in experiment [8], in [9] and in experiment [10] was more than 100 µM throughout. Moreover, the TGI in experiment [1], in [2], in [3], in experiment [4], in [5] and in experiment [7] was more than 100 µM in each case. The TGI in experiment [8], in experiment [9] and in experiment [10] was more than 100 µM throughout.
Take `COC1O[C@@H]2C[C@H]3C(C)(C)CCC[C@]3(C)C3=CCCC1[C@@]32C` (stereo partly drawn): the GI50 in experiment [1], in experiment [3], in experiment [4], in [5], in experiment [6] and in experiment [7] was more than 100 µM throughout. Moreover, the GI50 is more than 100 µM in experiment [8], 0.515 µM in [9] and more than 100 µM in experiment [10]. The TGI in experiment [1], in experiment [3], in [4], in experiment [5], in [6] and in experiment [7] was more than 100 µM throughout. Moreover, the TGI in experiment [8], in [9] and in experiment [10] was more than 100 µM in each case.
`COc1ccc(OC)c(C2SCC(=O)N2NC(=O)C(O)c2ccccc2)c1` (stereo not drawn): the GI50 in experiment [1], in [3], in [4], in [5], in experiment [6] and in experiment [7] was more than 100 µM in each case. In addition, the GI50 in experiment [8], in experiment [9] and in [10] was more than 100 µM in each case. Moreover, the TGI in experiment [1], in experiment [3], in experiment [4], in experiment [5], in experiment [6] and in experiment [7] was more than 100 µM each time. For the same compound, the TGI in experiment [8], in experiment [9] and in experiment [10] was more than 100 µM throughout.
For the compound `N#Cc1c(N)[nH]c2ccc(Sc3ccccc3)cc12`, the TGI in experiment [1] came to 8.65 µM; in experiment [2] it was 10.2 µM; in experiment [3], 1.29 µM; in [5] it was 19.5 µM; in experiment [6], 13.8 µM; in experiment [7], 10.7 µM. Further, the TGI in experiment [8] amounted to 16.9 µM; in [9], 15.8 µM; in experiment [10], 16 µM.
Regarding `CCC1(O)C(=O)OCc2c1cc1n(c2=O)Cc2cc3cc(N)ccc3nc2-1` (stereo not drawn), the TGI in experiment [1] was 4.94 µM; in [2], 0.266 µM; in experiment [4] it was 1.33 µM; in [5], 0.0931 µM; in [6], less than 0.01 µM; in [8], more than 100 µM. The TGI in experiment [9] was more than 100 µM; in experiment [10] it was 0.0142 µM.
With `CN1CCN(CC(O)COc2c(Br)c(Br)c(Br)c3c2OC(C)(C)C3)CC1` (stereo not drawn), the GI50 in [1] is 1.8 µM; in [2] it was 15.9 µM; in experiment [3], 24.2 µM; in experiment [5], 10.6 µM; in experiment [6] it was 3.11 µM; in experiment [7], 6.06 µM. The GI50 in experiment [8] was 3.16 µM; in experiment [9], 5.06 µM; in experiment [10] it was 11.3 µM. Besides, the TGI in experiment [1] was 4.44 µM; in experiment [2] it was 49 µM; in experiment [3], 61.4 µM; in [5], 26.4 µM; in experiment [6], 16.2 µM; in experiment [7], 43.2 µM. Besides, the TGI in experiment [8] came to 8.81 µM; in [9], 21.1 µM; in experiment [10] it was 24.7 µM.
As for `C/C1=C\[C@@H](O)C(=O)/C=C/C=C\c2csc(n2)[C@@H](C)NC(=O)C[C@@]2(CC1)S(=O)SC(=O)[C@]2(C)O` (stereo partly drawn), the GI50 in [1] was more than 100 µM; in experiment [3], 0.0254 µM; in experiment [10], 0.00433 µM. Also, the TGI was more than 100 µM in [1]; 0.11 µM in experiment [2]; 0.558 µM and 0.327 µM in experiment [3]; 0.025 µM in experiment [4]; 0.0062 µM in [5]; more than 100 µM in [6]. Moreover, the TGI is 0.0143 µM in experiment [8]; 0.0387 µM in experiment [9]; 0.038 µM and 0.0122 µM in experiment [10].
As for `Cc1ccc(C2=Nc3ccccc3SC(c3cccc([N+](=O)[O-])c3)C2)cc1` (stereo not drawn), the TGI in experiment [1] is 5.19 µM; in experiment [2], more than 100 µM; in experiment [3], more than 100 µM; in [4], more than 100 µM; in [5], 83.6 µM; in [7], 36.8 µM. For the same compound, the TGI in experiment [8], in [9] and in experiment [10] was more than 100 µM in each case.
For `Cc1ccc(NC(=O)c2ccccc2C(=O)O)cc1C`, the TGI in [1], in experiment [2], in experiment [3], in experiment [4], in experiment [5] and in [7] was more than 100 µM in each case. In addition, the TGI in [8], in experiment [9] and in [10] was more than 100 µM each time.
